Experimental findings from ChEMBL document CHEMBL1136684, “Novel and potent human and rat beta3-adrenergic receptor agonists containing substituted 3-indolylalkylamines” (Bioorg Med Chem Lett, 2003) are described below.

Experiment [1] has as its target T1, Beta-3 adrenergic receptor (Homo sapiens, UniProt P13945). As to the kind of experiment: Agonistic activity to recombinant human beta-3 adrenergic receptor expressed in CHO cells by measuring cAMP accumulation. Format: functional, cell-based. (In general: Cyclic AMP is a second messenger, typically raised through Gs and lowered through Gi signalling.)
Target sequence in this assay (P13945 whole entry, looked up): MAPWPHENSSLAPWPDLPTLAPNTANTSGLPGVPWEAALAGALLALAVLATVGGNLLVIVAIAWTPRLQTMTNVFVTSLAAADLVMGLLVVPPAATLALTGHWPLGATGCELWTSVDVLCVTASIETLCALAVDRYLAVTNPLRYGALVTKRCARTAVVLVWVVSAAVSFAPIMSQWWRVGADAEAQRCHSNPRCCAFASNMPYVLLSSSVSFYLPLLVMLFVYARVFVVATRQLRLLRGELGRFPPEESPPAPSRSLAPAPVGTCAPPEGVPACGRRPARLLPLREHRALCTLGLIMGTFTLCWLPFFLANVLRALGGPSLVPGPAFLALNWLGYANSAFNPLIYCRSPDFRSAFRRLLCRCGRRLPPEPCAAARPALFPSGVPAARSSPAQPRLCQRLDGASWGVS
Experiment [2] addresses Beta-1 adrenergic receptor (Homo sapiens, UniProt P08588). Nature of the experiment: Agonistic activity against human Beta-1 adrenergic receptor by measuring cAMP accumulation in CHO cells expressing beta3-AR. Format: functional, cell-based.
The target in experiment [3] is T1, Beta-3 adrenergic receptor. As to the kind of experiment: Agonism of recombinant human beta-3 adrenergic receptor assayed by measuring cAMP accumulation in CHO cells expressing beta3-AR. Format: functional, cell-based.
Target sequence in this assay (P13945 whole entry): as the sequence (P13945 whole entry, looked up) above
Experiment [4] has as its target Beta-3 adrenergic receptor (Rattus norvegicus) (UniProt P26255). As to the kind of experiment: Agonistic activity against rat Beta-3 adrenergic receptor as cAMP accumulation in CHO cells expressing beta3-AR.
Experiment [5] shares this target. The description is as above. The source holds these as a separate data set.
For experiment [6], the target named is T2, Beta-2 adrenergic receptor (Homo sapiens, UniProt P07550). As to the kind of experiment: (§1) Agonistic activity against human Beta-2 adrenergic receptor by measuring cAMP accumulation in CHO cells expressing beta3-AR. Format: functional, cell-based.
Target sequence in this assay (P07550 whole entry): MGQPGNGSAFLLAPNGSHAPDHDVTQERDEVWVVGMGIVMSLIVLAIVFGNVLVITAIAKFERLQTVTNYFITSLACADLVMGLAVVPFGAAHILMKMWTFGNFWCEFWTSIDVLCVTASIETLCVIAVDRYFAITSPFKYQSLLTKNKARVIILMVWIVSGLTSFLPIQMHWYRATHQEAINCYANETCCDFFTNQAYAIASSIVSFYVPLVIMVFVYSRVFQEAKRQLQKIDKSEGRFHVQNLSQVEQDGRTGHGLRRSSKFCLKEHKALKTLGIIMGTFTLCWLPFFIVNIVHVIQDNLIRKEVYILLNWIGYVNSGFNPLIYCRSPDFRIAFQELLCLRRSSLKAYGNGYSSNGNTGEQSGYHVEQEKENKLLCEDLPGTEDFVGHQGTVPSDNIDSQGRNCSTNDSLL
Experiment [7] concerns the target T1, Beta-3 adrenergic receptor. As to the kind of experiment: Agonistic activity against human Beta-3 adrenergic receptor by measuring cAMP accumulation in CHO cells expressing Beta-3 adrenergic receptor with respect to isoproterenol at a concentration of 10e-7 M. The format is functional, cell-based.
Target sequence in this assay (P13945 whole entry, looked up): as the sequence (P13945 whole entry, looked up) above
Experiment [8] concerns the target T1, Beta-3 adrenergic receptor. Nature of the experiment: (§2) Agonistic activity against human Beta-3 adrenergic receptor by measuring cAMP accumulation in CHO cells expressing Beta-3 adrenergic receptor. The format is functional, cell-based.
Target sequence in this assay (P13945 whole entry): as the sequence (P13945 whole entry, looked up) above
The target in experiment [9] is T1, Beta-3 adrenergic receptor. As to the kind of experiment: Agonistic activity against human Beta-3 adrenergic receptor by measuring cAMP accumulation in CHO cells expressing beta3-AR with respect to isoproterenol at a concentration of 10e-7 M. The format is functional, cell-based.
Target sequence in this assay (P13945 whole entry, looked up): as above
Experiment [10] concerns the target T1, Beta-3 adrenergic receptor. As to the kind of experiment: Agonistic activity against human Beta-3 adrenergic receptor by measuring cAMP accumulation in CHO cells. The format is functional, cell-based.
Target sequence in this assay (P13945 whole entry, looked up): as above
Experiment [11] concerns the target T2, Beta-2 adrenergic receptor. The experiment is described as §1. The format is functional, cell-based. The source holds these as a separate data set.
Target sequence in this assay (P07550 whole entry, looked up): as the sequence (P07550 whole entry) above
Experiment [12] has as its target T1, Beta-3 adrenergic receptor. As to the kind of experiment: Agonistic activity against human beta-3-adrenergic receptor by measuring cAMP accumulation in CHO cells expressing Beta-3 adrenergic receptor. Format: functional, cell-based.
Target sequence in this assay (P13945 whole entry, looked up): as the sequence (P13945 whole entry, looked up) above
For experiment [13], the target named is T1, Beta-3 adrenergic receptor. Described as §2. Format: functional, cell-based. This is another data set of the same source.
Target sequence in this assay (P13945 whole entry, looked up): as above

Sequence of Beta-1 adrenergic receptor (P08588 whole entry): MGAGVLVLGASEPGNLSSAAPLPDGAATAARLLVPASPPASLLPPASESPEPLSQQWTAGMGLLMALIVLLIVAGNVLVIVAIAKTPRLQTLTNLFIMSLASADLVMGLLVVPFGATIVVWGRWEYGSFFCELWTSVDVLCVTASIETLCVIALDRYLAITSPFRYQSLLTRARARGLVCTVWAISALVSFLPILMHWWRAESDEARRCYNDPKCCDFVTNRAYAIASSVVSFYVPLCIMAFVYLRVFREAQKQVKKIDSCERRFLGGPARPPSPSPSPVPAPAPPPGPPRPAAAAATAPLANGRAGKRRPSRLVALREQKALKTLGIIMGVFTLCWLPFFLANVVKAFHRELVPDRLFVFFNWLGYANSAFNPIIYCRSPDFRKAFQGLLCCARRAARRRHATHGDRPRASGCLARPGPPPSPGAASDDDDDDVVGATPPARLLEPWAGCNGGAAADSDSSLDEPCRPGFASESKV

For `C[C@@H](Cc1c[nH]c2c(OCC(=O)O)cccc12)NC[C@H](O)c1cccc(Cl)c1`, the Intrinsic activity in [1] turned out to be 84%; in experiment [5], 106%. Further, the figures for the EC50 in experiment [2], in experiment [3] and in [4] were 14 nM, 10 nM and 1.2 nM, respectively.

For the compound `COc1cccc2c(CC(C)NCC(O)c3cccc(Cl)c3)c[nH]c12` (centres undefined), in experiment [1], the Intrinsic activity was 113%.

On to `CC(Cc1c[nH]c2cc(Br)ccc12)NCC(O)c1cccc(Cl)c1` (centres undefined), for which the Intrinsic activity in [1] was 98%. Moreover, the concentration giving a half-maximal response (EC50) in [3] was 38 nM.

`COc1cccc2c(C[C@H](C)NC[C@H](O)c3cccc(Cl)c3)c[nH]c12`: the Intrinsic activity came to 51% in experiment [1] and 121% in experiment [5]. Further, the results for the EC50 in experiment [3] and in experiment [4] were 120 nM and 6.5 nM, respectively.

For the compound `CC(Cc1c[nH]c2ccccc12)NCC(O)c1cccc(Cl)c1` (mixture of isomers) [listing 1 of 2 here], the concentration for a half-maximal effect (EC50) in experiment [3] was 12 nM; in experiment [6] it was 23 nM; in experiment [4] it was 0.97 nM.

Regarding `Cc1cccc2[nH]cc(CC(C)NCC(O)c3cccc(Cl)c3)c12` (centres undefined), the Intrinsic activity in [1] was 165%. Moreover, in experiment [3], the concentration for a half-maximal effect (EC50) was determined as 96 nM.

As to `CCC(Cc1c[nH]c2ccccc12)NCC(O)c1cccc(Cl)c1` (centres undefined), the cAMP accumulation in experiment [7] is 20%.

On to `CC(Cc1c[nH]c2cc(Cl)ccc12)NCC(O)c1cccc(Cl)c1` (centres undefined), for which the Intrinsic activity in experiment [1] was found to be 131%. The concentration giving a half-maximal response (EC50) in [3] came to 28 nM.

For the compound `CC(Cc1c[nH]c2ccccc12)NCC(O)c1cccc(Cl)c1` (centres undefined) [listing 1 of 2 here], the EC50 in experiment [8] was 12 nM.

In the case of `Cn1cc(CCNCC(O)c2cccc(Cl)c2)c2ccccc21` (centres undefined), the cAMP accumulation in experiment [9] worked out at 6%.

In the case of `CC(Cc1c[nH]c2c(OCC(=O)O)cccc12)NC[C@H](O)c1cccc(Cl)c1` (some centres undefined), in [1], the Intrinsic activity was 124%. In addition, the EC50 in [3] is 0.11 nM.

Regarding `OC(CNCCc1c[nH]c2ccccc12)c1cccc(Cl)c1` (centres undefined), in experiment [10], the Intrinsic activity was 99%. This compound yielded an EC50 in experiment [8] of 69 nM.

`OC(CNC1CCc2[nH]c3ccccc3c2C1)c1cccc(Cl)c1` (centres undefined) came in with a cAMP accumulation in experiment [9] of 0%.

As to `C[C@H](Cc1c[nH]c2ccccc12)NC[C@@H](O)c1cccc(Cl)c1`, the Intrinsic activity stood at 23% in [11], 119% in experiment [1] and 108% in experiment [5]. The EC50 in experiment [2] is 47 nM; in experiment [3] it was 220 nM; in [6] it was 330 nM; in experiment [4] it was 11 nM.

Take `Cc1ccc2c(CC(C)NCC(O)c3cccc(Cl)c3)c[nH]c2c1` (centres undefined): the Intrinsic activity in [1] stood at 95%.

Regarding `C[C@H](Cc1c[nH]c2ccccc12)NC[C@H](O)c1cccc(Cl)c1`, the Intrinsic activity in experiment [11] was 50%; in experiment [1], 110%; in experiment [5], 98%. Moreover, the 50% effective concentration (EC50) in [2] came out at 1.9 nM; in [3], 5.4 nM; in experiment [6], 25 nM; in experiment [4] it was 0.36 nM.

In the case of `Cc1[nH]c2ccccc2c1CCNCC(O)c1cccc(Cl)c1` (centres undefined), in experiment [9], the cAMP accumulation turned out to be 5%.

With `Cc1cccc2c(CCNCC(O)c3cccc(Cl)c3)c[nH]c12` (centres undefined), the cAMP accumulation in experiment [9] turned out to be 0%.

On to `CCOc1cccc2c(CC(C)NC[C@H](O)c3cccc(Cl)c3)c[nH]c12` (some centres undefined), for which, in experiment [1], the Intrinsic activity was found to be 96%.

As for `COc1cccc2c(C[C@@H](C)NC[C@H](O)c3cccc(Cl)c3)c[nH]c12`, the figures for the Intrinsic activity in [11], in experiment [1] and in [5] were 46%, 89% and 147%, respectively. In addition, the half-maximal effective concentration (EC50) in [3] came to 0.36 nM; in experiment [6] it was 5.2 nM; in experiment [4], 0.15 nM.

As to `COc1cccc2c(CC(C)NC[C@H](O)c3cccc(Cl)c3)c[nH]c12` (some centres undefined), the Intrinsic activity in experiment [1] came to 114%.

Take `C[C@H](Cc1ccc(OCC(=O)O)cc1)NC[C@H](O)c1cccc(Cl)c1`: in experiment [11], the Intrinsic activity worked out at 31%.

On to `COC(=O)COc1cccc2c(CC(C)NC[C@H](O)c3cccc(Cl)c3)c[nH]c12` (some centres undefined), for which the Intrinsic activity in experiment [1] is 102%. For the same compound, the EC50 in [3] turned out to be 0.92 nM.

`CC(Cc1c[nH]c2c(O)cccc12)NC[C@H](O)c1cccc(Cl)c1` (some centres undefined): in [1], the Intrinsic activity was found to be 128%. Moreover, the EC50 in experiment [3] stood at 1.7 nM.

For the compound `COc1ccc2c(CC(C)NCC(O)c3cccc(Cl)c3)c[nH]c2c1` (centres undefined), the Intrinsic activity in [1] worked out at 102%.

In the case of `CC(Cc1c[nH]c2c(OCc3ccccc3)cccc12)NC[C@H](O)c1cccc(Cl)c1` (some centres undefined), in [1], the Intrinsic activity stood at 114%. Moreover, the concentration giving a half-maximal response (EC50) in experiment [3] came to 11 nM.

In the case of `CC(Cc1c[nH]c2c(OC(C)C)cccc12)NC[C@H](O)c1cccc(Cl)c1` (some centres undefined), in [1], the Intrinsic activity stood at 87%. Besides, in experiment [3], the EC50 was 2.8 nM.

In the case of `C[C@@H](Cc1c[nH]c2ccccc12)NC[C@H](O)c1cccc(Cl)c1`, the Intrinsic activity in experiment [1] came to 97%; in experiment [5] it was 96%. Besides, the results for the concentration for a half-maximal effect (EC50) in experiment [2], in experiment [3] and in [4] were 9.4 nM, 240 nM and 13 nM, respectively.

Consider `CC(C)(Cc1c[nH]c2ccccc12)NCC(O)c1cccc(Cl)c1` (centres undefined), for which the Intrinsic activity in [12] turned out to be 118%. For the same compound, the response in experiment [8] was half-maximal at 70 nM (EC50).

For the compound `CC(Cc1c[nH]c2ccccc12)NCC(O)c1cccc(Cl)c1` (centres undefined) [listing 2 of 2 here], in experiment [13], the Intrinsic activity amounted to 114%.

In turn, `Cc1ccc2[nH]cc(CCNCC(O)c3cccc(Cl)c3)c2c1` (centres undefined) returned a cAMP accumulation in experiment [9] of 7%.

Take `CCCOc1cccc2c(CC(C)NC[C@H](O)c3cccc(Cl)c3)c[nH]c12` (some centres undefined): the Intrinsic activity in experiment [1] was determined as 103%. In [3], the EC50 stood at 14 nM.

For `C[C@@H](Cc1c[nH]c2ccccc12)NC[C@@H](O)c1cccc(Cl)c1`, the Intrinsic activity amounted to 62% in experiment [1] and 108% in experiment [5]. In addition, the EC50 is 140 nM in experiment [2], 3300 nM in experiment [3] and 33 nM in [4].

`Cc1cccc2[nH]cc(CCNCC(O)c3cccc(Cl)c3)c12` (centres undefined) showed a cAMP accumulation in [9] of 20%.

For the compound `CC(Cc1c[nH]c2ccccc12)NCC(O)c1cccc(Cl)c1` (mixture of isomers) [listing 2 of 2 here], the Intrinsic activity came to 46% in experiment [11], 114% in experiment [1] and 107% in experiment [5].

`C[C@H](Cc1c[nH]c2c(OCC(=O)O)cccc12)NC[C@H](O)c1cccc(Cl)c1` [RAFABEGRON]: the Intrinsic activity is 26% in [11], 116% in experiment [1] and 110% in experiment [5]. Besides, the half-maximal effective concentration (EC50) in [2] worked out at 6.4 nM; in [3], 0.062 nM; in experiment [6] it was 13 nM; in [4], 0.016 nM.

Broadly, the EC50 is the concentration that produces a half-maximal response.
